In publication PMC7901699, “Challenging inflammatory process at molecular, cellular and in vivo levels via some new pyrazolyl thiazolones” (Journal of Enzyme Inhibition and Medicinal Chemistry, 2021):
Entries after “also recorded” stand apart in the source; their conditions may differ.

How the values were obtained:
THP-1 cells = assay: Monocyte-to-macrophage differentiation assay, M1 polarisation (PMA then LPS); format: cell-based, human
Method: Monocytes were cultured and differentiated as described previously. THP-1 cells (human acute monocytic leukaemia lineage, American Type Culture Collection, Manassas, VA) were seeded at a density of 20 × 10^5 cells/ml. A set of cells were exposed to 25 nM of phorbol myristate-acetate (PMA, Calbiochem, Darmstadt, Germany) for 24 h to drive differentiation. Another set was similarly treated with PMA followed by 100 ng/ml of lipopolysaccharide (LPS, invivogen, San Diego, CA, USA) for 72 h. After incubation, the supernatant was aspirated and the density of the adherent cells was estimated using MTS colorimetric cell viability kit (Abcam, Cambridge, UK). The inhibitory actions of different compounds on the differentiation process were evaluated by pre-incubation with different concentrations of each compound for 6 h. Cell viability after treatment was normalised to the reading after PMA exposure following a 6-h incubation with DMSO. All experiments were conducted in triplicates. A positive control for the effect of COX1/COX2 inhibition on monocyte-to-macrophage differentiation was obtained by treatment with diclofenac. IC50 values for each compound were determined by non-linear regression as the best fit values of the log [inhibitor] vs. response curve using GraphPad Prism software.

IL-1β = IL-1β protein expression by Western blotting; format: cell-based, human; conditions: 100 μM compound; PMA 24 h then LPS 72 h; normalised to GAPDH
Method: THP-1 monocytes were exposed to 100 μM of the test compounds, activated with 25 nM PMA for 24 h followed by 100 ng/ml LPS for 72 h. At the end of the incubation period, cells were harvested, proteins were extracted and SDS-PAGE electrophoresis, blotting, and antibody probing were conducted as described previously. Primary rabbit polyclonal antibodies to IL-1β, procaspase-3, and GAPDH were obtained from Abcam (Cambridge, UK). Clarity Western ECL substrate (BioRad, Hercules, CA, USA) was used to obtain a chemiluminescence signal captured by a Chemidoc imaging system (BioRad, Hercules, CA, USA). Band density was estimated using ImageJ software (National Institutes of Health, Bethesda, MD) and normalised to the GAPDH band density as a loading control.

15-LOX = molecular target: T1, 15-LOX (Glycine max, UniProt P08170); assay: In vitro 15-LOX inhibition assay (lipoxygenase inhibitor screening kit, Cayman); format: biochemical
T1 construct: purchased Cayman chemicals 760700
T1 sequence (P08170 1-839): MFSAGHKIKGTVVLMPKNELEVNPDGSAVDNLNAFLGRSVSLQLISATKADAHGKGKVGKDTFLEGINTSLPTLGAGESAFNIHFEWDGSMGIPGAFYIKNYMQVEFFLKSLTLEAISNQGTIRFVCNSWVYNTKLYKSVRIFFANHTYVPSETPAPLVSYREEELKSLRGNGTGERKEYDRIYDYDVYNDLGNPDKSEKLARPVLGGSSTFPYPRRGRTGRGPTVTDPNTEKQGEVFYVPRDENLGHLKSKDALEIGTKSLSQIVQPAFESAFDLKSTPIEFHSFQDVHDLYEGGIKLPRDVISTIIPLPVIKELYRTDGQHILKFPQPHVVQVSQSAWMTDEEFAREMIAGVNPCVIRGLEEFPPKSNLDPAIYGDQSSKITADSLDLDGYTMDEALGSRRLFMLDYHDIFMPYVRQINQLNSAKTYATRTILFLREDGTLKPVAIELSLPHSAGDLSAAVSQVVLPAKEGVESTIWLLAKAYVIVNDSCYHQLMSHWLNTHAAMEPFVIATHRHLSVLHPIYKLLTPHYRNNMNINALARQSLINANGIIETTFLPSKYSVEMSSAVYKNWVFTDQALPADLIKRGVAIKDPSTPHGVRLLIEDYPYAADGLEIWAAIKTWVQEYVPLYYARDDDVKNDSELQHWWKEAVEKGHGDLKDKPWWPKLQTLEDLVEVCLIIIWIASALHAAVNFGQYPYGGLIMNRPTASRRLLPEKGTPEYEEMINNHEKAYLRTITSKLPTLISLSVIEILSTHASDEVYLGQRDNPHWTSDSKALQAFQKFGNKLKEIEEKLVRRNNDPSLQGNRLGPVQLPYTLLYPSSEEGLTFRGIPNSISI
Method: (§1) Both assays were carried out in compliance with the manufacturer’s instructions and in accordance to prior studies[29]^,[33].
(§2) IC50 values (μM) and selectivity indices (SI) were calculated.

human recombinant COX-2 = molecular target: T2, human recombinant COX-2 (Homo sapiens, UniProt P35354); assay: In vitro COX-2 inhibition assay (colorimetric COX inhibitor screening kit, Cayman); format: biochemical
T2 construct: purchased Cayman Chemicals Inc. 560131
T2 sequence (P35354 18-604): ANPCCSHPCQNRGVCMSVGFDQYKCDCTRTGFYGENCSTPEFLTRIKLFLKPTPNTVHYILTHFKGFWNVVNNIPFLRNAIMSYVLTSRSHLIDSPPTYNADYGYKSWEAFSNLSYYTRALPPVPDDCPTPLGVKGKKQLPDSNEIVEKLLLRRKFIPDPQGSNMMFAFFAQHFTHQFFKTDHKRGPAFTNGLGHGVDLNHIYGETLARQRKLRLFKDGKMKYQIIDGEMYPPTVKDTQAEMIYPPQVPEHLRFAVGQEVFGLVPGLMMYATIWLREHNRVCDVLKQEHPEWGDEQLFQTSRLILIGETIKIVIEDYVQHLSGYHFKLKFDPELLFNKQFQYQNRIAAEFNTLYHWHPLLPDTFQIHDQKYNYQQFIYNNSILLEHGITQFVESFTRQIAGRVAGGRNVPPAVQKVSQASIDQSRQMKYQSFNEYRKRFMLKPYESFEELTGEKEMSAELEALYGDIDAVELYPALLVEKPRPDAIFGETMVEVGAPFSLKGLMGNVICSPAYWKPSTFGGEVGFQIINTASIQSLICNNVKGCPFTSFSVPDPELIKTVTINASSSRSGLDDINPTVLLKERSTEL
Method: as §1, §2

[1] = system: formalin-induced rat paw oedema; assay: Formalin-induced paw oedema test (acute inflammation model); format: in vivo, Wistar rats; conditions: oral 5 mg/kg once daily for seven days; oedema 4 h after formalin; vs diclofenac sodium and celecoxib 5 mg/kg
Method: A freshly prepared 5% formalin solution (prepared from 37% formaldehyde and saline (Merck, Germany)) was used as a phlogistic agent. Test and reference compounds (5 mg/kg body weight) were dissolved in DMSO and given orally with gastric gavage once per day for seven consecutive days, whereas DMSO was administered to the control group. On the 8th day, the initial paw volume was determined by a Vernier calliper. Then, a subcutaneous injection of 40 μl formalin was introduced into the right hind paw of all groups under light ether anaesthesia. The paw volume was measured 4 h after the formalin injection and the oedema volume was calculated by the difference in paw volume before and 4 h after the formalin injection. The percentage inhibition of oedema (or % protection against inflammation) was calculated for each compound as previously reported[34]^,[35].

## COc1ccc(-c2nn(-c3ccccc3)cc2/C=C2\SC(N3CCCCC3)=NC2=O)cc1 [Compound 7, (Z)-5-((3-(4-methoxyphenyl)-1-phenyl-1H-pyrazol-4-yl)methylene)-2-(piperidin-1-yl)thiazol-4(5H)-one]
THP-1 cells; Homo sapiens, THP-1, 6 h pre-incubation, PMA 25 nM 24 h then LPS 100 ng/ml 72 h, MTS, read-out: IC50 inhibition of THP-1 monocyte differentiation into M1 macrophages
  IC50: 15 µM
THP-1 cells; PMA then LPS, diclofenac as reference
  Inhibition of THP-1 differentiation into M1 macrophages (in words): potent inhibitory effects on monocyte-to-macrophage differentiation; also recorded: higher potency compared to diclofenac
IL-1β
  IL-1β expression in PMA/LPS-challenged THP-1: attenuating IL-1β production
15-LOX
  15-LOX inhibition, potency compared with quercetin (in words): almost equipotent to quercetin
15-LOX; mean of three determinations
  IC50: 3.52 µM
Human recombinant COX-2; IC50 (COX-1)/IC50 (COX-2)
  SI (COX-1/ COX-2): 114
Human recombinant COX-2; mean of three determinations
  IC50: 0.09 µM
[1]
  Inhibition of formalin-induced rat paw oedema (in words): as effective as either diclofenac or celecoxib
